US7811352B2, “Fertilizer compositions and methods of using” (priority 2005, dated 2010)

Legend:
[1] = system: Moonlight Kentucky bluegrass; assay: Turfgrass quality rating, Kentucky bluegrass lawn (Example 17); format: in vivo
Text: In this Example, the effect of a fertilizer comprising lysine on cool season lawn variety turfgrass growth was examined. The effects of lysine (HCl) and LIQUID LYSINE on a common variety of law turfgrass (Moonlight Kentucky bluegrass) were compared with those of urea, Milorganite and a blended fertilizer (a blend of methylene urea and urea in an approximately 1:1 ratio).
Fifteen fertilizer treatments comprising three concentrations of each fertilizer composition (Milorganite N—P—K, 6-2-0), urea (N—P—K, 46-0-0), a blended fertilizer, LIQUID LYSINE (N—P—K, 10-2-1), and lysine (HCl) (N—P—K, 15-2-1)) were prepared and applied to 3 replications of newly established “Moonlight” variety Kentucky bluegrass lawn turfgrass. The urea, lysine (HCl), and LIQUID LYSINE were dissolved/suspended in 1.5 gal water prior to application. […], […], The urea, LIQUID LYSINE and lysine (HCl) were applied as foliar liquids, while Milorganite and the blended fertilizer were applied as granular fertilizers. Plot size was 4 ft×8 ft laid out in a replicated complete block design. Plots were mowed at 2.0 inches before fertilizer application and mowed two times per week to 2.0 inch height. Grass clippings were not removed from the plots and no supplemental cultural maintenance or pest management was applied. Irrigation (0.15 inch) was applied following application and thereafter only when necessary to insure survival of the turf. Plots were rated for turfgrass quality (scale of 1-9 where 9=dark green turf, 1=dead/brown turf, and 6=minimally acceptable turf) and phytotoxic injury (scale of 0-9 where 9=significant foliar injury and 2=minimally objectionable foliar injury) throughout the study period. Quality was measured prior to application (day 0) and day 37, day 70 and day 95 after application. Injury was measured on day 37 and day 70 after application. In addition, blade density of the grass was measured on day 70 after application (scale of 1-9, where 9=very dense turf, 1=low density turf). All data was subject to statistical analysis and significant means were determined.

[2] = system: Floratam St. Augustine grass; assay: Turfgrass quality and color ratings, St. Augustine grass (Example 9); format: in vivo; set-up: key: 1-10 scale: 10 = dark green turf, 1 = dead/brown, 6 = minimally acceptable; settings: scale 1-10
Text: In this Example, the effect of a fertilizer comprising lysine on warn season turfgrass growth was examined. The effects of lysine (HCl) and LIQUID LYSINE on a common type of lawn quality turfgrass (St. Augustine grass) were compared with those of urea and Milorganite. St. Augustine grass is a commonly utilized turfgrass throughout the warm, tropical zones for lawn turf and is a commercially significant species.
Twelve fertilizer treatments comprising three concentrations of each fertilizer composition (Milorganite (N—P—K, 6-2-0), urea N—P—K, 46-0-0), LIQUID LYSINE (N—P—K, 10-2-1), and lysine (HCl) (N—P—K, 15-2-1)) were prepared and applied to 4 replications of Floratam St. Augustine grass. The lysine (HCl) was dissolved in water prior to application. Each fertilizer treatment was applied in concentrations of 0.5 lb N/1000 ft^2/month, 1.0 lb N/1000 ft^2/month and 3.0 lb N/1000 ft^2/month. The urea, LIQUID LYSINE and lysine (HCl) were applied as foliar liquids, while Milorganite was applied as a granular fertilizer. Plot size was 1 m×2 m set up as a randomized complete block. Plots were mowed at 3.0 inches before fertilizer application. Irrigation (0.15 inch) was applied following application. Plots were rated for turfgrass quality and color (scale of 1-10 where 10=dark green turf, 1=dead/brown turf; and 6=minimally acceptable turf) and phytotoxicity (scale of 0-5, where 5=worst, and 2=minimally objectionable) throughout the study period. Quality, color, and phytotoxicity were measured on 2 days before application (day −2) and day 2, day 5, day 15 and day 21 after application. All data was subject to statistical analysis and significant means were determined. Average turfgrass quality ratings for the treatments are presented in Table 6 and the quality results for application rates of 1.0 lb N/1000 ft^2/month are graphically presented in FIG. 2.

[3] = Weekly Rate 0.5 lbs N/1000 ft^2, Day 0
[4] = Weekly Rate 0.5 lbs N/1000 ft^2, Day 37
[5] = Weekly Rate 0.5 lbs N/1000 ft^2, Day 70
[6] = Weekly Rate 0.5 lbs N/1000 ft^2, Day 95
[7] = Weekly Rate 1.0 lbs N/1000 ft^2, Day 0
[8] = Weekly Rate 1.0 lbs N/1000 ft^2, Day 37
[9] = Weekly Rate 1.0 lbs N/1000 ft^2, Day 70
[10] = Weekly Rate 1.0 lbs N/1000 ft^2, Day 95
[11] = Weekly Rate 3.0 lbs N/1000 ft^2, Day 0
[12] = Weekly Rate 3.0 lbs N/1000 ft^2, Day 37
[13] = Weekly Rate 3.0 lbs N/1000 ft^2, Day 70
[14] = Weekly Rate 3.0 lbs N/1000 ft^2, Day 95
[15] = Monthly Rate 0.5 lbs N/1000 ft^2, Day 2
[16] = Monthly Rate 0.5 lbs N/1000 ft^2, Day 5
[17] = Monthly Rate 0.5 lbs N/1000 ft^2, Day 15
[18] = Monthly Rate 0.5 lbs N/1000 ft^2, Day 21
[19] = Monthly Rate 0.5 lbs N/1000 ft^2, Day −2 (before application)
[20] = Monthly Rate 1.0 lbs N/1000 ft^2, Day 2
[21] = Monthly Rate 1.0 lbs N/1000 ft^2, Day 5
[22] = Monthly Rate 1.0 lbs N/1000 ft^2, Day 15
[23] = Monthly Rate 1.0 lbs N/1000 ft^2, Day 21
[24] = Monthly Rate 1.0 lbs N/1000 ft^2, Day −2 (before application)
[25] = Monthly Rate 3.0 lbs N/1000 ft^2, Day 2
[26] = Monthly Rate 3.0 lbs N/1000 ft^2, Day 5
[27] = Monthly Rate 3.0 lbs N/1000 ft^2, Day 15
[28] = Monthly Rate 3.0 lbs N/1000 ft^2, Day 21
[29] = Monthly Rate 3.0 lbs N/1000 ft^2, Day −2 (before application)

Question: What does the source list for `Cl.NCCCC[C@H](N)C(=O)O` [Lys (HCl) 15% N, L-lysine monohydrochloride]?
Answer: Quality Rating - Kentucky Bluegrass [1, 3]: 5.0cde; Quality Rating - Kentucky Bluegrass [1, 4]: 5.3b; Quality Rating - Kentucky Bluegrass [1, 5]: 4.3cd; Quality Rating - Kentucky Bluegrass [1, 6]: 5.7ab; Quality Rating - Kentucky Bluegrass [1, 7]: 5.3bcd; Quality Rating - Kentucky Bluegrass [1, 8]: 7.3a; Quality Rating - Kentucky Bluegrass [1, 9]: 6.0ab; Quality Rating - Kentucky Bluegrass [1, 10]: 6.0a; Quality Rating - Kentucky Bluegrass [1, 11]: 6.3ab; Quality Rating - Kentucky Bluegrass [1, 12]: 8.0a; Quality Rating - Kentucky Bluegrass [1, 13]: 6.7a; Quality Rating - Kentucky Bluegrass [1, 14]: 5.7ab; Color Ratings - St. Augustine Grass [2, 15]: 6.5; Quality Ratings - St. Augustine Grass [2, 15]: 6.5; Color Ratings - St. Augustine Grass [2, 16]: 7.3cd; Quality Ratings - St. Augustine Grass [2, 16]: 7.1bcd; Color Ratings - St. Augustine Grass [2, 17]: 7.0ef; Quality Ratings - St. Augustine Grass [2, 17]: 7.3ef; Color Ratings - St. Augustine Grass [2, 18]: 7.4c; Quality Ratings - St. Augustine Grass [2, 18]: 7.3cd; Color Ratings - St. Augustine Grass [2, 19]: 6.6; Quality Ratings - St. Augustine Grass [2, 19]: 6.5; Color Ratings - St. Augustine Grass [2, 20]: 7.0; Quality Ratings - St. Augustine Grass [2, 20]: 6.6; Color Ratings - St. Augustine Grass [2, 21]: 7.6bc; Quality Ratings - St. Augustine Grass [2, 21]: 7.3abc; Color Ratings - St. Augustine Grass [2, 22]: 7.6cd; Quality Ratings - St. Augustine Grass [2, 22]: 7.9cde; Color Ratings - St. Augustine Grass [2, 23]: 8.0abc; Quality Ratings - St. Augustine Grass [2, 23]: 7.9ab; Color Ratings - St. Augustine Grass [2, 24]: 6.6; Quality Ratings - St. Augustine Grass [2, 24]: 6.4; Color Ratings - St. Augustine Grass [2, 25]: 6.6; Quality Ratings - St. Augustine Grass [2, 25]: 6.9; Color Ratings - St. Augustine Grass [2, 26]: 8.0ab; Quality Ratings - St. Augustine Grass [2, 26]: 7.5ab; Color Ratings - St. Augustine Grass [2, 27]: 8.6a; Quality Ratings - St. Augustine Grass [2, 27]: 9.3a; Color Ratings - St. Augustine Grass [2, 28]: 8.0abc; Quality Ratings - St. Augustine Grass [2, 28]: 7.9ab; Color Ratings - St. Augustine Grass [2, 29]: 6.6; Quality Ratings - St. Augustine Grass [2, 29]: 6.3

Question: `NC(N)=O` [Urea, urea, reference compound] was tested. Which “Quality Rating - Kentucky Bluegrass” value [1, 3] did it give?
Answer: Its value is 4.7de.

Question: And the “Quality Rating - Kentucky Bluegrass” value [1, 4]?
Answer: Its value is 6.0b.

Question: And the “Quality Rating - Kentucky Bluegrass” value [1, 5]?
Answer: Its value is 4.3cd.

Question: What about the “Quality Rating - Kentucky Bluegrass” value [1, 6] of the same compound?
Answer: The value was 4.3ab.

Question: What about the “Quality Rating - Kentucky Bluegrass” value [1, 7] of the same compound?
Answer: Its value is 5.0cde.

Question: And the “Quality Rating - Kentucky Bluegrass” value [1, 8]?
Answer: The value was 7.7a.

Question: What about the “Quality Rating - Kentucky Bluegrass” value [1, 9] of the same compound?
Answer: The value was 5.3bc.

Question: What about the “Quality Rating - Kentucky Bluegrass” value [1, 10] of the same compound?
Answer: The value was 6.3a.

Question: What about the “Quality Rating - Kentucky Bluegrass” value [1, 11] of the same compound?
Answer: Its value is 6.3ab.

Question: What about the “Quality Rating - Kentucky Bluegrass” value [1, 12] of the same compound?
Answer: Its value is 8.0a.

Question: And the “Quality Rating - Kentucky Bluegrass” value [1, 13]?
Answer: Its value is 6.7a.

Question: What about the “Quality Rating - Kentucky Bluegrass” value [1, 14] of the same compound?
Answer: Its value is 4.3ab.

Question: And the “Color Ratings - St. Augustine Grass” value [2, 15]?
Answer: Its value is 6.9.

Question: What about the “Quality Ratings - St. Augustine Grass” value [2, 15] of the same compound?
Answer: Its value is 6.8.

Question: What about the “Color Ratings - St. Augustine Grass” value [2, 16] of the same compound?
Answer: The value was 7.4cd.

Question: And the “Quality Ratings - St. Augustine Grass” value [2, 16]?
Answer: Its value is 7.1bcd.

Question: And the “Color Ratings - St. Augustine Grass” value [2, 17]?
Answer: Its value is 7.8bc.

Question: What about the “Quality Ratings - St. Augustine Grass” value [2, 17] of the same compound?
Answer: Its value is 7.6def.

Question: What about the “Color Ratings - St. Augustine Grass” value [2, 18] of the same compound?
Answer: Its value is 7.6bc.

Question: And the “Quality Ratings - St. Augustine Grass” value [2, 18]?
Answer: The value was 7.6bc.

Question: What about the “Color Ratings - St. Augustine Grass” value [2, 19] of the same compound?
Answer: Its value is 6.4.

Question: What about the “Quality Ratings - St. Augustine Grass” value [2, 19] of the same compound?
Answer: Its value is 6.3.

Question: And the “Color Ratings - St. Augustine Grass” value [2, 20]?
Answer: The value was 6.9.

Question: And the “Quality Ratings - St. Augustine Grass” value [2, 20]?
Answer: Its value is 6.8.

Question: What about the “Color Ratings - St. Augustine Grass” value [2, 21] of the same compound?
Answer: The value was 7.6bc.

Question: What about the “Quality Ratings - St. Augustine Grass” value [2, 21] of the same compound?
Answer: The value was 7.5ab.

Question: And the “Color Ratings - St. Augustine Grass” value [2, 22]?
Answer: Its value is 7.5cde.

Question: What about the “Quality Ratings - St. Augustine Grass” value [2, 22] of the same compound?
Answer: Its value is 7.9cde.

Question: What about the “Color Ratings - St. Augustine Grass” value [2, 23] of the same compound?
Answer: The value was 7.9abc.

Question: And the “Quality Ratings - St. Augustine Grass” value [2, 23]?
Answer: Its value is 7.6bc.

Question: What about the “Color Ratings - St. Augustine Grass” value [2, 24] of the same compound?
Answer: Its value is 6.4.

Question: And the “Quality Ratings - St. Augustine Grass” value [2, 24]?
Answer: Its value is 6.3.

Question: What about the “Color Ratings - St. Augustine Grass” value [2, 25] of the same compound?
Answer: Its value is 6.8.

Question: And the “Quality Ratings - St. Augustine Grass” value [2, 25]?
Answer: Its value is 6.9.

Question: And the “Color Ratings - St. Augustine Grass” value [2, 26]?
Answer: Its value is 8.3a.

Question: And the “Quality Ratings - St. Augustine Grass” value [2, 26]?
Answer: The value was 7.3abc.

Question: What about the “Color Ratings - St. Augustine Grass” value [2, 27] of the same compound?
Answer: Its value is 8.8a.

Question: What about the “Quality Ratings - St. Augustine Grass” value [2, 27] of the same compound?
Answer: Its value is 9.1ab.

Question: And the “Color Ratings - St. Augustine Grass” value [2, 28]?
Answer: The value was 8.5a.

Question: And the “Quality Ratings - St. Augustine Grass” value [2, 28]?
Answer: Its value is 8.3a.

Question: What about the “Color Ratings - St. Augustine Grass” value [2, 29] of the same compound?
Answer: Its value is 6.1.

Question: And the “Quality Ratings - St. Augustine Grass” value [2, 29]?
Answer: The value was 6.1.
